Experimental data taken from PubChem BioAssay AID1963972 (Molecular Pharmacology Branch, DTP, NCI, 2024).

Test system: 945468-187-T-J2-PDC spheroids viability
Test: Anticancer human tumor 945468-187-T-J2-PDC patient-derived rectal carcinoma cell line growth inhibition [PI3K]
Conditions: spheroids with HUVEC and MSC; for IC50: curve of first compound; for viability, T/C: stronger effect = lower value; active = viability on the fitted dose curve at most 10% of control; inactive = the rest
Method in brief: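 Multi-cell spheroids combine tumor cells with HUVEC and human MSCs, treated with targeted agents alone or with inavolisib, alpelisib, duvelisib or copanlisib. Concentrations fall in half-log steps from at or near clinical Cmax, or from 10 microM where Cmax is unknown; viability read-out.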
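Note: spheroids exposed to compounds for seven days before reading.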

Cn1cnc2c(F)c(Nc3ccc(Br)cc3Cl)c(C(=O)NOCCO)cc21 + CC(Nc1ccc2c(c1)OCCn1cc(N3C(=O)OCC3C(F)F)nc1-2)C(N)=O
0.714 µM: IC50 (second compound 1 µM)
inactive: viability, T/C (second compound 0.00316 µM, first compound 0.00949 µM) 121% | viability, T/C (second compound 0.00316 µM, first compound 0.03 µM) 86.4% | viability, T/C (second compound 0.00316 µM, first compound 0.0949 µM) 114% | viability, T/C (second compound 0.00316 µM, first compound 0.3 µM) 75.8% | viability, T/C (second compound 0.00316 µM, first compound 0.949 µM) 70.7% | viability, T/C (second compound 0.00316 µM, first compound 3 µM) 74.5% | viability, T/C (second compound 0.01 µM, first compound 0.00949 µM) 92.2% | viability, T/C (second compound 0.01 µM, first compound 0.03 µM) 101% | viability, T/C (second compound 0.01 µM, first compound 0.0949 µM) 92.2% | viability, T/C (second compound 0.01 µM, first compound 0.3 µM) 89.4% | viability, T/C (second compound 0.01 µM, first compound 0.949 µM) 74.9% | viability, T/C (second compound 0.01 µM, first compound 3 µM) 78.5% | viability, T/C (second compound 0.0316 µM, first compound 0.00949 µM) 121% | viability, T/C (second compound 0.0316 µM, first compound 0.03 µM) 99.6% | viability, T/C (second compound 0.0316 µM, first compound 0.0949 µM) 112% | viability, T/C (second compound 0.0316 µM, first compound 0.3 µM) 93.7% | viability, T/C (second compound 0.0316 µM, first compound 0.949 µM) 78.8% | viability, T/C (second compound 0.0316 µM, first compound 3 µM) 74.5% | viability, T/C (second compound 0.1 µM, first compound 0.00949 µM) 88.9% | viability, T/C (second compound 0.1 µM, first compound 0.03 µM) 102% | viability, T/C (second compound 0.1 µM, first compound 0.0949 µM) 81.2% | viability, T/C (second compound 0.1 µM, first compound 0.3 µM) 80.4% | viability, T/C (second compound 0.1 µM, first compound 0.949 µM) 75.1% | viability, T/C (second compound 0.1 µM, first compound 3 µM) 74.2% | viability, T/C (second compound 0.316 µM, first compound 0.00949 µM) 69.9% | viability, T/C (second compound 0.316 µM, first compound 0.03 µM) 88.6% | viability, T/C (second compound 0.316 µM, first compound 0.0949 µM) 72.4% | viability, T/C (second compound 0.316 µM, first compound 0.3 µM) 75.6% | viability, T/C (second compound 0.316 µM, first compound 0.949 µM) 75.9% | viability, T/C (second compound 0.316 µM, first compound 3 µM) 66.1% | viability, T/C (second compound 1 µM, first compound 0.00949 µM) 75.7% | viability, T/C (second compound 1 µM, first compound 0.03 µM) 72% | viability, T/C (second compound 1 µM, first compound 0.0949 µM) 72.8% | viability, T/C (second compound 1 µM, first compound 0.3 µM) 65.2% | viability, T/C (second compound 1 µM, first compound 0.949 µM) 45% | viability, T/C (second compound 1 µM, first compound 3 µM) 37.6%
> 3 µM: IC50 (second compound 0.00316 µM) | IC50 (second compound 0.01 µM) | IC50 (second compound 0.0316 µM) | IC50 (second compound 0.1 µM) | IC50 (second compound 0.316 µM)

CC(Cn1ccc(-c2ccc(C#N)c(Cl)c2)n1)NC(=O)c1cc(C(C)O)[nH]n1 (centres undefined) + CC(Nc1ncnc2nc[nH]c12)c1cc2cccc(Cl)c2c(=O)n1-c1ccccc1
inactive: viability, T/C (second compound 0.0316 µM, first compound 0.0316 µM) 99.9% | viability, T/C (second compound 0.0316 µM, first compound 0.1 µM) 75.6% | viability, T/C (second compound 0.0316 µM, first compound 0.316 µM) 108% | viability, T/C (second compound 0.0316 µM, first compound 1 µM) 104% | viability, T/C (second compound 0.0316 µM, first compound 3.16 µM) 99.9% | viability, T/C (second compound 0.0316 µM, first compound 10 µM) 89.3% | viability, T/C (second compound 0.1 µM, first compound 0.0316 µM) 128% | viability, T/C (second compound 0.1 µM, first compound 0.1 µM) 105% | viability, T/C (second compound 0.1 µM, first compound 0.316 µM) 106% | viability, T/C (second compound 0.1 µM, first compound 1 µM) 95.3% | viability, T/C (second compound 0.1 µM, first compound 3.16 µM) 117% | viability, T/C (second compound 0.1 µM, first compound 10 µM) 127% | viability, T/C (second compound 0.316 µM, first compound 0.0316 µM) 111% | viability, T/C (second compound 0.316 µM, first compound 0.1 µM) 86.3% | viability, T/C (second compound 0.316 µM, first compound 0.316 µM) 87% | viability, T/C (second compound 0.316 µM, first compound 1 µM) 89.3% | viability, T/C (second compound 0.316 µM, first compound 3.16 µM) 91% | viability, T/C (second compound 0.316 µM, first compound 10 µM) 91.6% | viability, T/C (second compound 1 µM, first compound 0.0316 µM) 87.2% | viability, T/C (second compound 1 µM, first compound 0.1 µM) 97.8% | viability, T/C (second compound 1 µM, first compound 0.316 µM) 78.4% | viability, T/C (second compound 1 µM, first compound 1 µM) 88.9% | viability, T/C (second compound 1 µM, first compound 3.16 µM) 82.6% | viability, T/C (second compound 1 µM, first compound 10 µM) 106% | viability, T/C (second compound 3.16 µM, first compound 0.0316 µM) 92.7% | viability, T/C (second compound 3.16 µM, first compound 0.1 µM) 94.1% | viability, T/C (second compound 3.16 µM, first compound 0.316 µM) 103% | viability, T/C (second compound 3.16 µM, first compound 1 µM) 89.6% | viability, T/C (second compound 3.16 µM, first compound 3.16 µM) 92.3% | viability, T/C (second compound 3.16 µM, first compound 10 µM) 85.3% | viability, T/C (second compound 10 µM, first compound 0.0316 µM) 113% | viability, T/C (second compound 10 µM, first compound 0.1 µM) 104% | viability, T/C (second compound 10 µM, first compound 0.316 µM) 88.7% | viability, T/C (second compound 10 µM, first compound 1 µM) 111% | viability, T/C (second compound 10 µM, first compound 3.16 µM) 109% | viability, T/C (second compound 10 µM, first compound 10 µM) 108%
> 10 µM: IC50 (second compound 0.0316 µM) | IC50 (second compound 0.1 µM) | IC50 (second compound 0.316 µM) | IC50 (second compound 1 µM) | IC50 (second compound 3.16 µM) | IC50 (second compound 10 µM)
